From article PMC2679375 (Journal of medicinal chemistry, 2008)

How the values were obtained:
[1] = in vivo; settings: rat, po
[2] = target: cIAP-2 (Homo sapiens, UniProt Q13489); assay: FP-based competitive binding assay for cIAP-2; settings: relative to compound 2
[3] = target: XIAP BIR3 (Homo sapiens, UniProt P98170); assay: Competitive fluorescence polarization-based XIAP binding assay; settings: relative to compound 2
[4] = system: MDA-MB-231 cancer cell line; settings: within 24-hour treatment
[5] = Aqueous solubility; assay type: physicochemical

Chain of XIAP BIR3 (P98170 241-356 limits assumed): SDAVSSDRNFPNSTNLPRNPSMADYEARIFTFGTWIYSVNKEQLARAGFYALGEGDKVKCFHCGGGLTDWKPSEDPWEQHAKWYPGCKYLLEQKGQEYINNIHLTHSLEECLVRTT
Chain of cIAP-2 (Q13489 whole entry): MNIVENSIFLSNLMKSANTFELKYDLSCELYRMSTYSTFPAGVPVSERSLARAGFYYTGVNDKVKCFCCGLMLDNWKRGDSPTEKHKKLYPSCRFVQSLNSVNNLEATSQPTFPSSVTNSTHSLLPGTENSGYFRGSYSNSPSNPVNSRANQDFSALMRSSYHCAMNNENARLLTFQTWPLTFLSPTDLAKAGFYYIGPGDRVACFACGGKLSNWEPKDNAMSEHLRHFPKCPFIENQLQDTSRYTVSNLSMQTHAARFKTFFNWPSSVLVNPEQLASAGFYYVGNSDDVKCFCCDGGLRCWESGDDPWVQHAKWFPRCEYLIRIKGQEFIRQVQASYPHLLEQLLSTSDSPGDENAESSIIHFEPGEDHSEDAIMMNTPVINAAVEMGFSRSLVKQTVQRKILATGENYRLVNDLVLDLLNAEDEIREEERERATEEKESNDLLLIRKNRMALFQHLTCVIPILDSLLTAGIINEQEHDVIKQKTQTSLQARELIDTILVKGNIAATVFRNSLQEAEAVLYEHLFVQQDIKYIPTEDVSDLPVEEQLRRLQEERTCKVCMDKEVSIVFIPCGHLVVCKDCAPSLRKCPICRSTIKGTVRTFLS

SMILES	times weaker than 2 in binding to cIAP-2 [2]	times weaker than compound 2 in binding to XIAP BIR3 [3]	further results
CN[C@@H](C)C(=O)N[C@H]1CCCC[C@H]2CC[C@@H](C(=O)NC(c3ccccc3)c3ccccc3)N2C1=O [Compound 1]			AUC(0-inf) ([1]; 25 mg/kg): 482 ± 92 ng·h/mL
CN[C@@H](C)C(=O)N[C@H]1CN(C)CC[C@H]2CC[C@@H](C(=O)NC(c3ccccc3)c3ccccc3)N2C1=O [Compound 3, (5S,8S,10aR)-N-benzhydryl-3-methyl-5-((S)-2-(methylamino)propanamido)-6-oxodeca-hydro pyrrolo[1,2-a][1,5]diazocine-8-carbox-amide]	2-3 times	4-17 times	
CN[C@@H](C)C(=O)N[C@H]1CN(Cc2ccccc2)CC[C@H]2CC[C@@H](C(=O)NC(c3ccccc3)c3ccccc3)N2C1=O [Compound 4, (5S,8S,10aR)-N-benzhydryl-3-benzyl-5-((S)-2-(methylamino)propanamido)-6-oxodeca-hydropyrrolo[1,2-a][1,5]diazocine-8-carbox-amide]	2-3 times	4-17 times	
CN[C@@H](C)C(=O)N[C@H]1CN(C(=O)Cc2ccccc2)CC[C@H]2CC[C@@H](C(=O)NC(c3ccccc3)c3ccccc3)N2C1=O [Compound 6, (5S,8S,10aR)-N-Benzhydryl-5-((S)-2-(methyl-amino)propanamido)-6-oxo-3-(2-phenyl-acetyl)decahydro pyrrolo[1,2-a][1,5]diazo-cine-8-carboxamide]			concentration that effectively induces apoptosis [4]: 100 nM; aqueous solubility (in words) [5]: excellent aqueous solubility; AUC(0-inf) ([1]; 30 mg/kg): 1980 ± 614 ng·h/mL
